In US8507551B2, “Antimicrobial therapy for bacterial infections” (priority 2005, dated 2013):

Key:
WT and ΔCrtM S. aureus = assay: Protease and cathelicidin sensitivity assays; assay type: cell-based, Staphylococcus aureus; details: WT vs ΔCrtM S. aureus, 2 h at 37° C., FIG. 6d, e
Protocol: Human neutrophil elastase, and cathepsin G were purchased from Calbiochem. The antimicrobial peptide mCRAMP was synthesized at the Louisiana State University Protein Facility (Martha Juban, Director). S. aureus cultures were diluted (1:2,000) in 10 mM phosphate buffer (pH 7.2)+0.5% LB to 1×10^6 CFU/ml. Ninety μl of this bacterial suspension was added to replicate wells in a 96-well plate. Dilutions of the cathepsin G (20 and 100 mU/ml), human neutrophil elastase (12.5 and 50 μg/ml), and murine CRAMP (0.4-3 μM) were prepared in 10 mM phosphate buffer and added to wells in 10 μl volume; 10 mM phosphate buffer alone was used as a negative control. After 2 h incubation at 37° C., 25 μl aliquots of each well were serially diluted in PBS and plated on THB. Each experiment was performed in duplicate and repeated.

ΔCrtM mutant S. aureus [1] = assay: Whole blood killing assay, ΔCrtM mutant control; assay type: cell-based, Staphylococcus aureus; details: ΔCrtM mutant exposed to SKF 525-A, FIG. 4c
Protocol: (§1) Wild-type and ΔCrtM mutant S. aureus were cultured in the presence or absence of SKF 525-A at the indicated concentrations. Depicted are the observed effects on A) pigmentation phenotype, B) singlet oxygen susceptibility, and C) survival in murine whole blood. Results shown are representative of at least three experiments.
(§2) Given the protective effect provided to the bacteria by the golden yellow pigments, a pharmacologic agent that inhibits carotenogenesis might render S. aureus more susceptible to immune clearance.

ΔCrtM mutant S. aureus [2] = assay: Singlet oxygen susceptibility assay (methylene blue and light), ΔCrtM mutant control; assay type: cell-based, Staphylococcus aureus; details: ΔCrtM mutant exposed to SKF 525-A, FIG. 4b
Protocol: as §1
(§3) Tests for susceptibility to oxidants were performed either in PBS (S. aureus) or THB (S. pyogenes). Hydrogen peroxide (H2O2) was added to 1.5% final concentration, […] bacteria incubated at 37° C. for 1 h, then 1,000 U/ml of catalase (Sigma) added to quench residual H2O2. […] For the singlet oxygen assay, 10^8 S. aureus or 4×10^8 S. pyogenes were incubated at 37° C. in individual wells of a 24-well culture plate in the presence or absence of 1-6 μg/ml methylene blue and situated exactly 10 cm from a 100-watt light source. Bacterial viability was assessed after 1-3 h by plating dilutions on THA.
as §2

WT S. aureus [3] = assay: Singlet oxygen susceptibility assay (methylene blue and light), WT strain; assay type: cell-based, Staphylococcus aureus; details: WT S. aureus cultured with SKF 525-A, FIG. 4b
Protocol: as §1, §3, §2

WT strain of S. aureus [4] = details: earlier report; moderate residual accumulation of δ carotenoid intermediate noted; cited from earlier work
WT strain of S. aureus [5] = assay: Pigment production of S. aureus grown in the presence of the agent; assay type: cell-based, Staphylococcus aureus; details: FIG. 4a
Protocol: as §1
Wild-type S. aureus strain (Pig1), isolated from the skin of a child with atopic dermatitis. Streptococcus pyogenes strain 5448 is a well-characterized serotype M1T1 clinical isolate^18. CD1 and C57Bl/6 mice were purchased from Charles River. The gp91^Phox−/− mice were bred at the Veteran's Administration Medical Center, San Diego and maintained on trimethoprim/sulfamethoxazole prophylaxis until 3 d prior to experiments. S. aureus and S. pyogenes were propagated in Todd-Hewitt broth (THB) or on THB agar (Difco, Detroit, Mich.). Unless otherwise indicated, all experiments were performed with bacteria derived from S. aureus 36-48 h stationary phase cultures or S. pyogenes 24 h stationary phase cultures, a point when pigmentation phenotypes were readily apparent.
Stationary phase (48 h) cultures of WT S. aureus Pig1 and its isogenic ΔCrtM mutant were subjected to methanol extraction. The absorbance profile of the extracts was measured with a MBA 2000 spectrophotometer (Perkin Elmer). […]

WT S. aureus [6] = assay: Whole blood killing assay, WT strain; assay type: cell-based, Staphylococcus aureus; details: WT S. aureus cultured with SKF 525-A, FIG. 4c
Protocol: Wild-type and ΔCrtM mutant S. aureus were cultured in the presence or absence of SKF 525-A at the indicated concentrations. […] Results shown are representative of at least three experiments.
as §2

[7] = test system: WT and ΔCrtM S. aureus in mouse blood; details: FIG. 6c
Protocol: Bacteria were washed twice in PBS, diluted to an inoculum of 10^4 cfu in 25 μl PBS, and mixed with 75 μl of freshly drawn human or mouse blood in heparinized tubes. The tubes were incubated at 37° C. for 4 h with agitation, at which time dilutions were plated on THA for enumeration of surviving cfu.

[8] = test system: WT and ΔCrtM S. aureus in human neutrophils; details: FIG. 2d
Protocol: Neutrophils were purified from healthy human volunteers using a Histopaque gradient (Sigma) per manufacturer's directions. Intracellular survival assays were performed as follows. Bacterial cultures were washed twice in PBS, diluted to a concentration of 4.5×10^6 cfu in 100 μl RPMI+10% FCS, and mixed with 3×10^5 neutrophils in the same media (multiplicity of infection, MOI=15:1), centrifuged at 700×g for 5 min, then incubated at 37° C. in a 5% CO2 incubator. Gentamicin (Gibco) (final concentration 400 μg/ml for S. aureus and 100 μg/ml for S. pyogenes) was added after 10 min to kill extracellular bacteria. At specified time points, the contents of sample wells were withdrawn, centrifuged to pellet the neutrophils, and washed to remove the antibiotic medium. Neutrophils were then lysed in 0.02% triton-X, and cfu calculated by plating on THA. Several assays were repeated with addition of a step involving preincubation of the bacterial inoculum with 10% autologous human serum for 15 min on ice.

mCRAMP: murine cathelicidin antimicrobial peptide, synthesized at Louisiana State University Protein Facility (ISRLAGLLRKGGEKIGEKLKKIGQKIKNFFQKLVPQPE; Cathelin-related antimicrobial peptide; UniProt P51437 135-172, looked up)
susceptibility of S. aureus to antimicrobial action (WT and ΔCrtM S. aureus): equally susceptible

cathepsin G: granule protease purchased from Calbiochem
susceptibility of S. aureus to antimicrobial action (WT and ΔCrtM S. aureus): no difference

CCCC(C(=O)OCCN(CC)CC)(c1ccccc1)c1ccccc1 [SKF 525-A, 2-diethylaminoethyl-2,2-diphenyl-valerate]
effect on blood survival (ΔCrtM mutant S. aureus [1]): no significant effects
effect on oxidant susceptibility (ΔCrtM mutant S. aureus [2]): no significant effects
susceptibility to singlet oxygen killing (WT S. aureus [3]): dose-dependent increase
pigment formation in S. aureus (previously shown) (WT strain of S. aureus [4]): inhibit pigment formation
pigment production (WT strain of S. aureus [5]): dose-dependent decrease
ability to survive in human whole blood (WT S. aureus [6]): decrease

c1ccc2c(c1)[I+]c1ccccc1-2 [DPI, diphenyleneiodonium]
survival of WT and ΔCrtM S. aureus in mouse blood when oxidative burst inhibited [7]: survived equally well
survival of WT and ΔCrtM S. aureus in human neutrophils when oxidative burst inhibited [8]: survived equally well

human neutrophil elastase: granule protease purchased from Calbiochem
susceptibility of S. aureus to antimicrobial action (WT and ΔCrtM S. aureus): resistant
